From ChEMBL document CHEMBL2010668 (Bioorg Med Chem Lett, 2012)

What was measured:
Tyrosinase = target: T1, Tyrosinase (Agaricus bisporus, UniProt O42713); assay: Inhibition of mushroom tyrosinase
T1 sequence (O42713 whole entry): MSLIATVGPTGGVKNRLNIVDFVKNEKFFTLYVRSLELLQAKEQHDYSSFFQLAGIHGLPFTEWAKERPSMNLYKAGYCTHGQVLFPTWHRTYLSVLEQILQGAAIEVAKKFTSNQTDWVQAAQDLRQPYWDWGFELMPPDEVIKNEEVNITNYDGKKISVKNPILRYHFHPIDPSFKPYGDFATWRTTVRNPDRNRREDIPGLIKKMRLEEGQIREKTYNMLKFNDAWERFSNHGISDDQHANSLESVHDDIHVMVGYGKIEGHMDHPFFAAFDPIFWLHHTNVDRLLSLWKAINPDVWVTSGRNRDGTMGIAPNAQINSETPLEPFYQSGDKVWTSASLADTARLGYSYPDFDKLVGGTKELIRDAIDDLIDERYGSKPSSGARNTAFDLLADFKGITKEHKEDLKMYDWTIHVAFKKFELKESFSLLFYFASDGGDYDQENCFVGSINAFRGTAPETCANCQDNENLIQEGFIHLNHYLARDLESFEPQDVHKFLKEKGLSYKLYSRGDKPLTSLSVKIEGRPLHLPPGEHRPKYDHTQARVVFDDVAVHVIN

cells = details: Mus musculus, Melan-a
Description: Depigmenting activity in mouse Melan-a cells assessed as melanin production

[1] = Cytotoxicity against mouse Melan-a cells assessed as cell survival at 100 uM; type: cell-based; details: read-out: Survival
[2] = Cytotoxicity against mouse Melan-a cells assessed as cell survival at 80 uM; type: cell-based; details: read-out: Survival
[3] = Cytotoxicity against mouse Melan-a cells at 46.64 uM; type: cell-based
[4] = Cytotoxicity against mouse Melan-a cells assessed as cell survival at 50 uM; type: cell-based; details: read-out: Survival

O=C(/C=C/c1ccc2c(c1)OCO2)OCc1cc(=O)c(O)co1
IC50 (Tyrosinase): 1.53 µM | IC50 (cells): > 100 µM | viability at 100 µM [1]: 97.1%

O=C(/C=C/c1ccc2c(c1)OCO2)Oc1coc(CO)cc1=O
IC50 (Tyrosinase): > 200 µM | viability at 80 µM [2]: 98.9% | Activity [3]: Non-toxic | IC50 (cells): 46.6 µM

O=C(/C=C/c1ccc2c(c1)OCO2)OC(=O)/C=C/c1ccc2c(c1)OCO2
IC50 (Tyrosinase): > 100 µM | IC50 (cells): > 100 µM | viability at 100 µM [1]: 97.1%

O=C(/C=C/c1ccc2c(c1)OCO2)OCc1cc(=O)c(OCc2cc(=O)c(O)co2)co1
IC50 (Tyrosinase): > 100 µM | IC50 (cells): 23.5 µM | viability at 50 µM [4]: 95.9%
